Measured values taken from the NIST ThermoML archive (doi:10.1021/acs.jced.7b00712).

Details: Brillouin light scattering

CC(C)CC(C)(C)C [2,2,4-trimethylpentane]
Details	speed of sound [m/s]
294.06 K, 100 kPa, Liquid	1099.7
294.37 K, 3000 kPa, Liquid	1127.4
294.65 K, 6000 kPa, Liquid	1147.6
294.84 K, 10000 kPa, Liquid	1176.1
294.97 K, 12000 kPa, Liquid	1181.7
304.03 K, 100 kPa, Liquid	1058.5
304.16 K, 3000 kPa, Liquid	1088.2
304.23 K, 6000 kPa, Liquid	1109.6
304.27 K, 10000 kPa, Liquid	1136.9
304.27 K, 12000 kPa, Liquid	1147.7
313.81 K, 100 kPa, Liquid	1017.3
313.82 K, 10000 kPa, Liquid	1100.1
313.85 K, 12000 kPa, Liquid	1110.8
313.92 K, 3000 kPa, Liquid	1037.2
313.96 K, 6000 kPa, Liquid	1065.2
323.56 K, 100 kPa, Liquid	978.2
323.61 K, 3000 kPa, Liquid	999.1
323.65 K, 6000 kPa, Liquid	1027.4
323.67 K, 10000 kPa, Liquid	1060.4
323.71 K, 12000 kPa, Liquid	1075.4
333.4 K, 12000 kPa, Liquid	1041.9
333.42 K, 100 kPa, Liquid	938.5
333.46 K, 10000 kPa, Liquid	1028
333.48 K, 3000 kPa, Liquid	968
333.5 K, 6000 kPa, Liquid	996
342.88 K, 100 kPa, Liquid	898
343.07 K, 3000 kPa, Liquid	927.9
343.16 K, 6000 kPa, Liquid	954.8
343.21 K, 12000 kPa, Liquid	1008.5
343.22 K, 10000 kPa, Liquid	990.3
352.86 K, 100 kPa, Liquid	858.9
352.89 K, 3000 kPa, Liquid	891.7
352.94 K, 6000 kPa, Liquid	921.1
353.01 K, 10000 kPa, Liquid	961.7
353.04 K, 12000 kPa, Liquid	975.5
363.39 K, 3000 kPa, Liquid	852.2
363.49 K, 6000 kPa, Liquid	883.5
363.54 K, 10000 kPa, Liquid	925.7
363.55 K, 100 kPa, Liquid	821.9
363.58 K, 12000 kPa, Liquid	943.8
373.04 K, 3000 kPa, Liquid	821.1
373.27 K, 6000 kPa, Liquid	843.9
373.41 K, 10000 kPa, Liquid	888.2
373.49 K, 12000 kPa, Liquid	908.6
383.18 K, 3000 kPa, Liquid	783.2
383.8 K, 6000 kPa, Liquid	813.8
384.11 K, 10000 kPa, Liquid	855.6
384.26 K, 12000 kPa, Liquid	876.5
393.83 K, 3000 kPa, Liquid	742.3
394 K, 6000 kPa, Liquid	782.2
394.15 K, 10000 kPa, Liquid	825.8
394.19 K, 12000 kPa, Liquid	848.1
402.16 K, 3000 kPa, Liquid	716.5
402.48 K, 6000 kPa, Liquid	750.9
402.64 K, 10000 kPa, Liquid	800.2
402.78 K, 12000 kPa, Liquid	819.5
412.57 K, 3000 kPa, Liquid	677.6
412.84 K, 6000 kPa, Liquid	719.3
413.07 K, 10000 kPa, Liquid	766.7
413.22 K, 12000 kPa, Liquid	791.3
423.95 K, 3000 kPa, Liquid	636.8
424.32 K, 6000 kPa, Liquid	678.1
424.49 K, 10000 kPa, Liquid	732.1
424.59 K, 12000 kPa, Liquid	756.7
434.51 K, 3000 kPa, Liquid	602.6
434.94 K, 6000 kPa, Liquid	647.4
435.26 K, 10000 kPa, Liquid	701
435.36 K, 12000 kPa, Liquid	726.5
443.7 K, 3000 kPa, Liquid	569.7
444 K, 6000 kPa, Liquid	619.6
444.22 K, 10000 kPa, Liquid	677.1
444.36 K, 12000 kPa, Liquid	700.3
452.94 K, 3000 kPa, Liquid	538.4
453.22 K, 6000 kPa, Liquid	588.3
454.37 K, 10000 kPa, Liquid	648.8
455.24 K, 12000 kPa, Liquid	671.1
462.54 K, 3000 kPa, Liquid	502.1
463.04 K, 6000 kPa, Liquid	558.9
463.43 K, 10000 kPa, Liquid	622.7
463.72 K, 12000 kPa, Liquid	651.6
472.45 K, 3000 kPa, Liquid	464.2
472.86 K, 6000 kPa, Liquid	530.7
473.22 K, 10000 kPa, Liquid	596.3
473.48 K, 12000 kPa, Liquid	627.7
483.15 K, 3000 kPa, Liquid	423.5
483.63 K, 6000 kPa, Liquid	496.7
484.05 K, 10000 kPa, Liquid	569.9
484.3 K, 12000 kPa, Liquid	598.4
493.12 K, 3000 kPa, Liquid	386.4
493.56 K, 6000 kPa, Liquid	464.9
494.09 K, 10000 kPa, Liquid	542.2
494.42 K, 12000 kPa, Liquid	576.5
502.8 K, 3000 kPa, Liquid	350.1
503.17 K, 6000 kPa, Liquid	435.4
503.79 K, 10000 kPa, Liquid	516.1
504.09 K, 12000 kPa, Liquid	550.4
512.41 K, 3000 kPa, Liquid	311.4
513.04 K, 6000 kPa, Liquid	404
513.78 K, 10000 kPa, Liquid	491.8
514.01 K, 12000 kPa, Liquid	526.6
523.31 K, 3000 kPa, Liquid	264.5
523.97 K, 6000 kPa, Liquid	371.4
524.59 K, 10000 kPa, Liquid	463
524.7 K, 12000 kPa, Liquid	501.3
543.28 K, 3000 kPa, Fluid (supercritical or subcritical phases)	159
543.47 K, 4000 kPa, Fluid (supercritical or subcritical phases)	233.1
543.63 K, 5000 kPa, Fluid (supercritical or subcritical phases)	282.2
